Laboratory results reported in patent publication US9708333B2, “Fused bicyclic 1,2,4-triazine compounds as TAM inhibitors” (Incyte Corporation, priority 2015, dated 2017).
pIC50: −log10 of the molar value.

Target: Tyro3 (Homo sapiens (Human), UniProt Q06418)
Experiment: TAM Enzymatic Assay (HTRF), Tyro3
Format: biochemical
Details: 0.366 nM Tyro3, 60 min
Procedure: The kinase assay buffer contained 50 mM HEPES, pH7.5, 10 mM MgCl2, 1 mM EGTA, 0.01% NP-40 and 2 mM DTT. 0.1 ul test compounds dissolved in DMSO were transferred from compound plates to white 384-well assay plates (Greiner [sequence] plates). […] 4 ul enzyme solution (or assay buffer for the enzyme blank) was added to the appropriate wells in each plate, and then 4 ul/well substrate solution was added to initiate the reaction. The plate was protected from light and incubated at room temperature for 60 min. […] The plate was incubated for 1 h at room temperature, and HTRF (homogenous time resolved fluorescence) signal was measured on a PHERAstar FS plate reader (BMG labtech). Percentage of inhibition was calculated for each concentration and IC50 value was generated from curve fitting with GraphPad Prism software.

Chain of Tyro3 (Q06418 41-890): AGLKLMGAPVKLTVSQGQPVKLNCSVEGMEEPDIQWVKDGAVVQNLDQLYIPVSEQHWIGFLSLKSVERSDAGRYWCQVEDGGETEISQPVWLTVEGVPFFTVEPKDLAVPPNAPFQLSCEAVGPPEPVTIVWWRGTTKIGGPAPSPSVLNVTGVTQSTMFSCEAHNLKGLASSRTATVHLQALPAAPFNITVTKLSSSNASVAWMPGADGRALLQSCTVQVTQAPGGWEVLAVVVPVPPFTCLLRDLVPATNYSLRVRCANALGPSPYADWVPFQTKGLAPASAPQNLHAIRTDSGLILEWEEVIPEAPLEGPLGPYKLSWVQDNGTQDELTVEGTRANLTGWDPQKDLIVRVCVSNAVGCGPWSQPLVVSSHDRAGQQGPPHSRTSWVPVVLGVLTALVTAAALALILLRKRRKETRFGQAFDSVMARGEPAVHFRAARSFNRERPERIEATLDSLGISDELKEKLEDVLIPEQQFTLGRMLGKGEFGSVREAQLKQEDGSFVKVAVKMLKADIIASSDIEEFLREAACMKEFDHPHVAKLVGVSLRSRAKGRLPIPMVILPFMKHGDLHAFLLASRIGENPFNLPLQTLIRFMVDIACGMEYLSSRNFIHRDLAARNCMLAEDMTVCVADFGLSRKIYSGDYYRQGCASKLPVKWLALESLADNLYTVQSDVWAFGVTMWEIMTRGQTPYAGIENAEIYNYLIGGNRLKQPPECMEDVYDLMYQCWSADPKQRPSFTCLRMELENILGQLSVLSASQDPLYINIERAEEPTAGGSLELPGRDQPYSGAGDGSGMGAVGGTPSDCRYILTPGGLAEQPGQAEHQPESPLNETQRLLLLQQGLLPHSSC

Compound	pIC50
CCCCNc1ncc2c(-c3ccc(CN4CCN(C)CC4)cc3)nc([C@H]3CC[C@@H](O)CC3)n2n1 [1 (2nd peak, cis-), cis-4-(2-(Butylamino)-5-{4-[(4-methylpiperazin-1-yl)methyl]phenyl}imidazo[5,1-f][1,2,4]triazin-7-yl)cyclohexanol]	6.30 to 7.00
CCCCNc1ncc2c(-c3ccc(CN4CCOCC4)cc3)nc([C@H]3CC[C@H](O)CC3)n2n1 [2 (1st peak, trans-), trans-4-{2-(Butylamino)-5-[4-(morpholin-4-ylmethyl)phenyl]imidazo[5,1-f][1,2,4]triazin-7-yl}cyclohexanol]	6.30 to 7.00

Target: JAK1 (Homo sapiens (Human), UniProt P23458)
Experiment: not given
Details: 1 mM ATP; cited from earlier work

Chain of JAK1 (P23458 whole entry, species assumed): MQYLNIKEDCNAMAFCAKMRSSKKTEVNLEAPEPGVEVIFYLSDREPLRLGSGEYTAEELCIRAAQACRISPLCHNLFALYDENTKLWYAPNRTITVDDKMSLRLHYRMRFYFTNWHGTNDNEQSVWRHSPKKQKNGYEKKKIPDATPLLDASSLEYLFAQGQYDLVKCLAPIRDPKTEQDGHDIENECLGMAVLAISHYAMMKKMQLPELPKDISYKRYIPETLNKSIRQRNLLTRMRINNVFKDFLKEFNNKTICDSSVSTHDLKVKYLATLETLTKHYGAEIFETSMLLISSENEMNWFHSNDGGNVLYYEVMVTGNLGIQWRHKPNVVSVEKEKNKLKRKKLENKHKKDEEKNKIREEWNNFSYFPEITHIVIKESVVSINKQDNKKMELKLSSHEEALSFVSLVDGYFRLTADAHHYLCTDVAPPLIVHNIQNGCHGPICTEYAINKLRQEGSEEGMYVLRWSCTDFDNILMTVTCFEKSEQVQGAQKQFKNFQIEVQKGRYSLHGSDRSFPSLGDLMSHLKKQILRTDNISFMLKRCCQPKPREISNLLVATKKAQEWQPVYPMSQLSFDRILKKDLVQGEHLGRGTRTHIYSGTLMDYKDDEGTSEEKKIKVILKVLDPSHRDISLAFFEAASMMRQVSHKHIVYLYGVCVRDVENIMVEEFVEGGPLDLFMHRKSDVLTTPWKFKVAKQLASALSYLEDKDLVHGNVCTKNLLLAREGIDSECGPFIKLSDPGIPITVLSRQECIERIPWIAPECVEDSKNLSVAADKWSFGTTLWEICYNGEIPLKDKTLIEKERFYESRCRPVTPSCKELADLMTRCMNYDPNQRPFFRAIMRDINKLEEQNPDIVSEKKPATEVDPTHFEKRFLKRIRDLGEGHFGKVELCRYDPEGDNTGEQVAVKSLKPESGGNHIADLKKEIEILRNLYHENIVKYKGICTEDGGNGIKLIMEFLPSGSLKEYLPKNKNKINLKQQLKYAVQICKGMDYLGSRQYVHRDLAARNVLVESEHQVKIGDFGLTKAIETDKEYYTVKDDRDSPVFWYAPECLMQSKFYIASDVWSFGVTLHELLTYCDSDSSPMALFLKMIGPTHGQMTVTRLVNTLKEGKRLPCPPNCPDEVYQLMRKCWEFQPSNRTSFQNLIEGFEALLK

Compound	pIC50
trans-7-((4-Aminocyclohexyl)methyl)-5-(4-fluorophenyl)-N-(3-phenylpropyl)imidazo [5,1-f][1,2,4]triazin-2-amine [Example 14]	> 8.00

Same assay, conditions: selectivity ratio, IC50 at 1 mM ATP; cited from earlier work

Compound	JAK2/JAK1
C[C@@H](O)c1nc2cnc3ccsc3c2n1[C@H]1CC[C@H](CC#N)OC1 [Compound 1, ((2R,5S)-5-{2-[(1R)-1-hydroxyethyl]-1H-imidazo[4,5-d]thieno[3,2-b]pyridin-1-yl}tetrahydro-2H-pyran-2-yl)acetonitrile]	>10
N#CCC(C1CCN(c2cccc(Cl)n2)C1)n1cc(-c2ncnc3[nH]ccc23)cn1 (centres unmarked) [Compound 3, 3-[1-(6-chloropyridin-2-yl)pyrrolidin-3-yl]-3-[4-(7H-pyrrolo[2,3-d]pyrimidin-4-yl)-1H-pyrazol-1-yl]propanenitrile]	>10
N#CCC(C1CCN(c2nc3cccnc3o2)C1)n1cc(-c2ncnc3[nH]ccc23)cn1 (centres unmarked) [Compound 4, 3-(1-[1,3]oxazolo[5,4-b]pyridin-2-ylpyrrolidin-3-yl)-3-[4-(7H-pyrrolo[2,3-d]pyrimidin-4-yl)-1H-pyrazol-1-yl]propanenitrile]	>10
N#CCC(CN1CCN(C(=O)c2ccc(C#N)cc2F)CC1)n1cc(-c2ncnc3[nH]ccc23)cn1 (centres unmarked) [Compound 5, 4-[(4-{3-cyano-2-[4-(7H-pyrrolo[2,3-d]pyrimidin-4-yl)-1H-pyrazol-1-yl]propyl}piperazin-1-yl)carbonyl]-3-fluorobenzonitrile]	>10
N#CCC(CN1CCN(C(=O)c2ccc(C#N)cc2F)CC1)n1ccc(-c2ncnc3[nH]ccc23)c1 (centres unmarked) [Compound 6, 4-[(4-{3-cyano-2-[3-(7H-pyrrolo[2,3-d]pyrimidin-4-yl)-1H-pyrrol-1-yl]propyl}piperazin-1-yl)carbonyl]-3-fluorobenzonitrile]	>10
N#CCC1(n2cc(-c3ncnc4[nH]ccc34)cn2)CN(C2CCN(C(=O)c3ccnc(C(F)(F)F)c3F)CC2)C1 [Compound 7, {1-{1-[3-Fluoro-2-(trifluoromethyl)isonicotinoyl]piperidin-4-yl}-3-[4-(7H-pyrrolo[2,3-d]pyrimidin-4-yl)-1H-pyrazol-1-yl]azetidin-3-yl}acetonitrile]	>10
N#CCC1(n2cc(-c3ncnc4[nH]ccc34)cn2)CN(C2CCN(C(=O)Nc3ccc(F)cc3C(F)(F)F)CC2)C1 [Compound 8, 4-{3-(Cyanomethyl)-3-[4-(7H-pyrrolo[2,3-d]pyrimidin-4-yl)-1H-pyrazol-1-yl]azetidin-1-yl}-N-[4-fluoro-2-(trifluoromethyl)phenyl]piperidine-1-carboxamide]	>10
N#CCC1(n2cc(-c3ncnc4[nH]ccc34)cn2)CN(C2CCN(C(=O)c3ccnc(C(F)(F)F)n3)CC2)C1 [Compound 9, [3-[4-(7H-pyrrolo[2,3-d]pyrimidin-4-yl)-1H-pyrazol-1-yl]-1-(1-{[2-(trifluoromethyl)pyrimidin-4-yl]carbonyl}piperidin-4-yl)azetidin-3-yl]acetonitrile]	>10
N#CC[C@]1(n2cc(-c3ncnc4[nH]ccc34)cn2)C[C@H](N2CCN(C(=O)c3ccnc(C(F)(F)F)n3)CC2)C1 [Compound 10, [trans-1-[4-(7H-pyrrolo[2,3-d]pyrimidin-4-yl)-1H-pyrazol-1-yl]-3-(4-{[2-(trifluoromethyl)pyrimidin-4-yl]carbonyl}piperazin-1-yl)cyclobutyl] acetonitrile]	>10
C[C@H](NC(=O)c1cc(F)c(N2CC(CC#N)(n3cc(-c4ncnc5[nH]ccc45)cn3)C2)cc1F)C(F)(F)F [Compound 16, 4-{3-(cyanomethyl)-3-[4-(7H-pyrrolo [2,3-d]pyrimidin-4-yl)-1H-pyrazol-1-yl]azetidin-1-yl}-2,5-difluoro-N-[(1S)-2,2,2-trifluoro-1-methylethyl] benzamide]	>10
N#CCC1(n2cc(-c3ncnc4[nH]ccc34)cn2)CN([C@H]2CC[C@@H](Oc3cc(CCO)nc(C(F)(F)F)n3)CC2)C1 [Compound 18, {1-(cis-4-{[6-(2-hydroxyethyl)-2-(trifluoromethyl)pyrimidin-4-yl]oxy}cyclohexyl)-3-[4-(7H-pyrrolo [2,3-d]pyrimidin-4-yl)-1H-pyrazol-1-yl]azetidin-3-yl}acetonitrile]	>10
CCNCc1cc(O[C@H]2CC[C@@H](N3CC(CC#N)(n4cc(-c5ncnc6[nH]ccc56)cn4)C3)CC2)nc(C(F)(F)F)c1 [Compound 19, {1-(cis-4-{[4-[(ethylamino)methyl]-6-(trifluoromethyl)pyridin-2-yl]oxy}cyclohexyl)-3-[4-(7H-pyrrolo [2,3-d]pyrimidin-4-yl)-1H-pyrazol-1-yl]azetidin-3-yl}acetonitrile]	>10
CC(C)(O)c1cc(O[C@H]2CC[C@@H](N3CC(CC#N)(n4cc(-c5ncnc6[nH]ccc56)cn4)C3)CC2)nc(C(F)(F)F)c1 [Compound 20, {1-(cis-4-{[4-(1-hydroxy-1-methylethyl)-6-(trifluoromethyl)pyridin-2-yl]oxy}cyclohexyl)-3-[4-(7H-pyrrolo [2,3-d]pyrimidin-4-yl)-1H-pyrazol-1-yl]azetidin-3-yl}acetonitrile]	>10
C[C@@H](CO)NCc1cc(OC2CCN([C@H]3C[C@](CC#N)(n4cc(-c5ncnc6[nH]ccc56)cn4)C3)CC2)nc(C(F)(F)F)c1 [Compound 23, {trans-3-(4-{[4-({[(1S)-2-hydroxy-1-methylethyl]amino}methyl)-6-(trifluoromethyl)pyridin-2-yl]oxy}piperidin-1-yl)-1-[4-(7H-pyrrolo[2,3-d]pyrimidin-4-yl)-1H-pyrazol-1-yl]cyclobutyl} acetonitrile]	>10
C[C@@H](O)CNCc1cc(OC2CCN([C@H]3C[C@](CC#N)(n4cc(-c5ncnc6[nH]ccc56)cn4)C3)CC2)nc(C(F)(F)F)c1 [Compound 24, {trans-3-(4-{[4-({[(2R)-2-hydroxypropyl]amino}methyl)-6-(trifluoromethyl)pyridin-2-yl]oxy}piperidin-1-yl)-1-[4-(7H-pyrrolo[2,3-d]pyrimidin-4-yl)-1H-pyrazol-1-yl]cyclobutyl} acetonitrile]	>10
C[C@H](O)CNCc1cc(OC2CCN([C@H]3C[C@](CC#N)(n4cc(-c5ncnc6[nH]ccc56)cn4)C3)CC2)nc(C(F)(F)F)c1 [Compound 25, {trans-3-(4-{[4-({[(2S)-2-hydroxypropyl]amino}methyl)-6-(trifluoromethyl)pyridin-2-yl]oxy}piperidin-1-yl)-1-[4-(7H-pyrrolo[2,3-d]pyrimidin-4-yl)-1H-pyrazol-1-yl]cyclobutyl} acetonitrile]	>10
N#CC[C@]1(n2cc(-c3ncnc4[nH]ccc34)cn2)C[C@H](N2CCC(Oc3cc(CCO)cc(C(F)(F)F)n3)CC2)C1 [Compound 26, {trans-3-(4-{[4-(2-hydroxyethyl)-6-(trifluoromethyl)pyridin-2-yl]oxy}piperidin-1-yl)-1-[4-(7H-pyrrolo[2,3-d]pyrimidin-4-yl)-1H-pyrazol-1-yl]cyclobutyl} acetonitrile]	>10
CCCCNc1ncc2c(-c3ccc(F)cc3)nc(C[C@H]3CC[C@H](N)CC3)n2n1 [Example 13, trans-7-[(4-Aminocyclohexyl)methyl]-N-butyl-5-(4-fluorophenyl)imidazo[5,1-f][1,2,4]triazin-2-amine]	>10
N[C@H]1CC[C@H](Cc2nc(-c3ccc(F)cc3)c3cnc(NCCCc4ccccc4)nn23)CC1 [Example 14, trans-7-((4-Aminocyclohexyl)methyl)-5-(4-fluorophenyl)-N-(3-phenylpropyl)imidazo [5,1-f][1,2,4]triazin-2-amine]	>10

Target: PI3Kδ (Homo sapiens (Human), UniProt O00329)
Experiment: not given
Details: cited from earlier work

Chain of PI3Kδ (O00329 whole entry, species assumed): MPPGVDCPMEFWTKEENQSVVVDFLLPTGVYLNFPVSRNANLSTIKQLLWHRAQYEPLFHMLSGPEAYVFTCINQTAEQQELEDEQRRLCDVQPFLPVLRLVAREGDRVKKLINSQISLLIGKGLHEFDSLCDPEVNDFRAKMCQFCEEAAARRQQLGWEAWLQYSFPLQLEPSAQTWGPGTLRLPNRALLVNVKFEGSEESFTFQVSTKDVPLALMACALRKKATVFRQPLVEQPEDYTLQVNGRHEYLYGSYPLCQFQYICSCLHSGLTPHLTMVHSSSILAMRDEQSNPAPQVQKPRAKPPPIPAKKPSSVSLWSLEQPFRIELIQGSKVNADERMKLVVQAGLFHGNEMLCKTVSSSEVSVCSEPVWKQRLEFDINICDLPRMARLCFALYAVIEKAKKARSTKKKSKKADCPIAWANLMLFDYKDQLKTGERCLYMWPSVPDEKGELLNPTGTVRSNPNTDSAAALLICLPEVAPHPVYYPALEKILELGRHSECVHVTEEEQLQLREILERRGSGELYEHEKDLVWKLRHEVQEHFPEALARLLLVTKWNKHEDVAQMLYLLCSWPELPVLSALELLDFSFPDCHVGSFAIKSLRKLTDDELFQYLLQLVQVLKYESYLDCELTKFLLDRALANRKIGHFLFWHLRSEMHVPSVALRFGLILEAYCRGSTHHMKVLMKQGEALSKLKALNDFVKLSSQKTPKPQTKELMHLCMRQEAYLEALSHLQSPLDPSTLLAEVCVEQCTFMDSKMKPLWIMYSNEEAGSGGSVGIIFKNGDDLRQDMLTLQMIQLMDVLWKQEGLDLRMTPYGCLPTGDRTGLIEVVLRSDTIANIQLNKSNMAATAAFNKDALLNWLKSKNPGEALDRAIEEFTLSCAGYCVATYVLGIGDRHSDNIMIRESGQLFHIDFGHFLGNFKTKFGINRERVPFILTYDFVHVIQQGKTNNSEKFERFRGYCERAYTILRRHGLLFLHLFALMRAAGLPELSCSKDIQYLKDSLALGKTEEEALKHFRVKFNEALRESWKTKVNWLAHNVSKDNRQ
Chain of PI3Kδ (P27986 whole entry partner, species assumed): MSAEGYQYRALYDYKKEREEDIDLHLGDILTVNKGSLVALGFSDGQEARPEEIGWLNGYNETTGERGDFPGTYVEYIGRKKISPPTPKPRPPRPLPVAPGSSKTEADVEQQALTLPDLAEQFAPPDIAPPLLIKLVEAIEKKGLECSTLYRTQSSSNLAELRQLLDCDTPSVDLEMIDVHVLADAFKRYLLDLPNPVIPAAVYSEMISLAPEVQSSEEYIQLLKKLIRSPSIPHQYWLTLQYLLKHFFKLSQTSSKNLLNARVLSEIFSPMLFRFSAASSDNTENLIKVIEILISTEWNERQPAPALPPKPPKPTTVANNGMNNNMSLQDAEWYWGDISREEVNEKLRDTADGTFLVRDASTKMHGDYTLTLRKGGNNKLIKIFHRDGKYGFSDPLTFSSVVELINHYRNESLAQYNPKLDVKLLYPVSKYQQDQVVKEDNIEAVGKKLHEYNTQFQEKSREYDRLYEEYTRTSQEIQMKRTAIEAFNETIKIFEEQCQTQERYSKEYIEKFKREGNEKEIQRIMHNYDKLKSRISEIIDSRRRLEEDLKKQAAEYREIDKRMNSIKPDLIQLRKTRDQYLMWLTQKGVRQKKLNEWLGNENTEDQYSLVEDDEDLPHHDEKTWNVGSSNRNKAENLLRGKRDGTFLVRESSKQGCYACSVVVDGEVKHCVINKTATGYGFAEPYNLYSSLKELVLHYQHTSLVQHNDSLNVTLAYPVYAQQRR

Compound	pIC50
CCOc1c(C(C)n2nc(C)c3c(N)ncnc32)cc(Cl)c(F)c1C1CNC(=O)C1 (single isomer, unassigned) [Compound 32b, 4-{3-[1-(4-amino-3-methyl-1H-pyrazolo[3,4-d]pyrimidin-1-yl)ethyl]-5-chloro-2-ethoxy-6-fluorophenyl}pyrrolidin-2-one]	> 7.30
CCOc1c(C(C)n2nc(C)c3c(N)ncnc32)cc(Cl)c(F)c1C1CNC(=O)C1 (single isomer, unassigned) [Compound 32c, 4-{3-[1-(4-amino-3-methyl-1H-pyrazolo[3,4-d]pyrimidin-1-yl)ethyl]-5-chloro-2-ethoxy-6-fluorophenyl}pyrrolidin-2-one]	> 7.30

Target: c-Mer (Homo sapiens (Human), UniProt Q12866)
Experiment: TAM Enzymatic Assay (HTRF), c-Mer
Format: biochemical
Details: 0.0625 nM c-Mer, ATP-containing substrate solution, 60 min

Chain of c-Mer (Q12866 21-999): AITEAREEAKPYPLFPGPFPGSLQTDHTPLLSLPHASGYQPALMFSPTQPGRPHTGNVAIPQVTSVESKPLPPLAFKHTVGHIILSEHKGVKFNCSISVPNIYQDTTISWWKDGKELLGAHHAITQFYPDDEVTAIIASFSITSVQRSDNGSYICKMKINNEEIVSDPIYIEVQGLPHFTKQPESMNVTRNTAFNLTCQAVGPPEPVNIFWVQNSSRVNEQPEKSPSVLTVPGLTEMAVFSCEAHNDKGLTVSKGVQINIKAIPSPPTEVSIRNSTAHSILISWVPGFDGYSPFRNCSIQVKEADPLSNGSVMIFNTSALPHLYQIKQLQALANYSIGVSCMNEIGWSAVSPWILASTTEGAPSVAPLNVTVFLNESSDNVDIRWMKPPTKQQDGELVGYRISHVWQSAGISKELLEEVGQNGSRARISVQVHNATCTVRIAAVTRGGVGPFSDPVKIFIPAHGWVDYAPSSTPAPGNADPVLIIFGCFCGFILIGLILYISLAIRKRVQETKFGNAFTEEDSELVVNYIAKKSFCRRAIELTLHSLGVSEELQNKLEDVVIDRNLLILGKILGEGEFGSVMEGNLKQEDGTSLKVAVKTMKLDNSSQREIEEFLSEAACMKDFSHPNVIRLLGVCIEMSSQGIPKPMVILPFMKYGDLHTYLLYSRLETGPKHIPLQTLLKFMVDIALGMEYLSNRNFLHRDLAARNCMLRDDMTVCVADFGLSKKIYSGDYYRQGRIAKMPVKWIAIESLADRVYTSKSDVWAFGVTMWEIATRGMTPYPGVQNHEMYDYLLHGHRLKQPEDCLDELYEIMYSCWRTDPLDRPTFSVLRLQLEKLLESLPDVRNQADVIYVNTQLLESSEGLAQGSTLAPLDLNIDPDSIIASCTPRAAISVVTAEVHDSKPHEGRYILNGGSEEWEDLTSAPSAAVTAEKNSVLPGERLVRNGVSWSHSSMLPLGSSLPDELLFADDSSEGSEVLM

Compound	pIC50
CCCCNc1ncc2c(-c3cccc(CO)c3)nc(C3CCC(O)CC3)n2n1 (single isomer, unassigned) [8 (1st peak), 4-{2-(Butylamino)-5-[3-(hydroxymethyl)phenyl]imidazo[5,1-f][1,2,4]triazin-7-yl}cyclohexanol]	≥ 7.00
CCCCNc1ncc2c(-c3ccc(CN4CCN(C)CC4)cc3)nc([C@H]3CC[C@@H](O)CC3)n2n1 [1 (2nd peak, cis-), cis-4-(2-(Butylamino)-5-{4-[(4-methylpiperazin-1-yl)methyl]phenyl}imidazo[5,1-f][1,2,4]triazin-7-yl)cyclohexanol]	≥ 7.00
CCCCNc1ncc2c(-c3ccc(CN4CCOCC4)cc3)nc([C@H]3CC[C@H](O)CC3)n2n1 [2 (1st peak, trans-), trans-4-{2-(Butylamino)-5-[4-(morpholin-4-ylmethyl)phenyl]imidazo[5,1-f][1,2,4]triazin-7-yl}cyclohexanol]	≥ 7.00
CCCCNc1ncc2c(-c3ccc(CO)cc3)nc([C@H]3CC[C@H](O)CC3)n2n1 [3 (1st peak, trans-), trans-4-{2-(Butylamino)-5-[4-(hydroxymethyl)phenyl]imidazo[5,1-f][1,2,4]triazin-7-yl}cyclohexanol]	≥ 7.00
CCCCNc1ncc2c(-c3ccc(CO)cc3)nc([C@H]3CC[C@@H](O)CC3)n2n1 [3 (2nd peak, cis-), cis-4-{2-(Butylamino)-5-[4-(hydroxymethyl)phenyl]imidazo[5,1-f][1,2,4]triazin-7-yl}cyclohexanol]	< 6.00
